Converted amounts (≈) assume the structure as drawn. The source made the active and inactive calls. No cut-off for these calls is given here.
Legend:
Adenosine receptor A2a [1] = target: T1, Adenosine receptor A2a (Homo sapiens, UniProt P29274); assay: Agonist activity at recombinant human A2A receptor expressed in CHO cells assessed as increase in forskolin-induced cAMP level at 10 uM preincubated for 20 mins prior to forskolin-stimulation measure after 5 mins by liquid scintillation counting method; type: functional, cell-based
T1 sequence (P29274 whole entry): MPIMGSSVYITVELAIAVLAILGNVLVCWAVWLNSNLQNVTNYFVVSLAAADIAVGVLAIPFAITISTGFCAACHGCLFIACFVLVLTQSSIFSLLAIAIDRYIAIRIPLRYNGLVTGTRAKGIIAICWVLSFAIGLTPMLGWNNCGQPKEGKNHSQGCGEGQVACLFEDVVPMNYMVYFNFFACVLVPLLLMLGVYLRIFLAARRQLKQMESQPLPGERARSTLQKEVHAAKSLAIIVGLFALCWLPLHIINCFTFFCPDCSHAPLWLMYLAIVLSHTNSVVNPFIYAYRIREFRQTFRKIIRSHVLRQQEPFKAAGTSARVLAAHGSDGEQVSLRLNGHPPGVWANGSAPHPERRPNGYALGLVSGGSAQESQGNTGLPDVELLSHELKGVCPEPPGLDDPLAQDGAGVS

Adenosine receptor A1 [2] = target: T2, Adenosine receptor A1 (Rattus norvegicus, UniProt P25099); assay: Displacement of [3H]CCPA from A1 receptor in rat brain cortex membranes by liquid scintillation counting method; type: cell membranes
T2 sequence (P25099 whole entry): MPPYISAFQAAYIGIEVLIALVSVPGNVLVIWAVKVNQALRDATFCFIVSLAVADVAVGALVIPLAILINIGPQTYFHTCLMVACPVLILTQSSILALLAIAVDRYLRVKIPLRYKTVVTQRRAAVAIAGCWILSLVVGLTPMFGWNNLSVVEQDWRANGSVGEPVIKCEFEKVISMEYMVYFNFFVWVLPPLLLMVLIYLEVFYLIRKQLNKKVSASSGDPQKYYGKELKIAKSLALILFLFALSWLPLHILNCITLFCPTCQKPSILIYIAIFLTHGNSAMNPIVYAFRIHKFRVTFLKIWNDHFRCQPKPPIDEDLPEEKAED

[3] = target: T3, Adenosine receptor A2b (Homo sapiens) (UniProt P29275); assay: Displacement of [3H]PSB-603 from human A2B receptor expressed in CHO cell membrane at 1 uM relative to control; type: cell membranes
T3 sequence (whole entry): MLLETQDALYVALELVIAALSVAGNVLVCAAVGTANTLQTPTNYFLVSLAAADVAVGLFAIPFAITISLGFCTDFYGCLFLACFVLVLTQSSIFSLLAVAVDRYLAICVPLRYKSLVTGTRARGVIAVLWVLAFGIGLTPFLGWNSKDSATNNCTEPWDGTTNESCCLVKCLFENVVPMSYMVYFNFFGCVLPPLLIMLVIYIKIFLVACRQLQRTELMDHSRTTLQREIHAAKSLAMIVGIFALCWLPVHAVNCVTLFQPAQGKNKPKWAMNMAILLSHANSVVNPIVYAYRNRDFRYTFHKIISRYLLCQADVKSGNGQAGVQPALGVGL

Adenosine receptor A2a [4] = target: T1, Adenosine receptor A2a; assay: Agonist activity at recombinant human A2A receptor expressed in CHO cells assessed as increase in forskolin-induced cAMP level at 1 uM preincubated for 20 mins prior to forskolin-stimulation measure after 5 mins by liquid scintillation counting method; type: functional, cell-based
Adenosine receptor A2a [5] = target: T1, Adenosine receptor A2a; assay: Displacement of [3H]MSX from human A2A receptor measured after 30 mins by liquid scintillation counting method
[6] = Thermodynamic solubility of the compound at pH 4; type: physicochemical; conditions: buffer, read-out: Therm_solubility
[7] = Thermodynamic solubility of the compound at pH 7.4; type: physicochemical; conditions: buffer, read-out: Therm_solubility
[8] = target: T4, Adenosine receptor A1 (Homo sapiens) (UniProt P30542); assay: Agonist activity at recombinant human A1 receptor expressed in CHO cells assessed as inhibition of forskolin-induced cAMP accumulation at 1 uM preincubated for 20 mins prior to forskolin-stimulation measure after 5 mins by liquid scintillation counting method; type: functional, cell-based
T4 sequence (whole entry): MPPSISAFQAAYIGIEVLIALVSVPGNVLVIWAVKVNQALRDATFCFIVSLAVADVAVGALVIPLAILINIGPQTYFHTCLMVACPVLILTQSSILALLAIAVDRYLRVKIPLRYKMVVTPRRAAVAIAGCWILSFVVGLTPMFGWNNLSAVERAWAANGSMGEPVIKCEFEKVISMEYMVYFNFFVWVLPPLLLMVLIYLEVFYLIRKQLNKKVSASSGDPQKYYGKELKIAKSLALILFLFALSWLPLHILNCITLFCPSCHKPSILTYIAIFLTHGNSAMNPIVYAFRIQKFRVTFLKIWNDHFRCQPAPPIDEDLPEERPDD

[9] = target: T5, Amine oxidase [flavin-containing] B (Homo sapiens, UniProt P27338); assay: Inhibition of recombinant human MAO-B expressed in baculovirus infected BTI insect cells preincubated for 30 mins followed by addition of p-tyramine as substrate measured over 45 mins by Amplex Red MAO assay
T5 sequence (P27338 whole entry): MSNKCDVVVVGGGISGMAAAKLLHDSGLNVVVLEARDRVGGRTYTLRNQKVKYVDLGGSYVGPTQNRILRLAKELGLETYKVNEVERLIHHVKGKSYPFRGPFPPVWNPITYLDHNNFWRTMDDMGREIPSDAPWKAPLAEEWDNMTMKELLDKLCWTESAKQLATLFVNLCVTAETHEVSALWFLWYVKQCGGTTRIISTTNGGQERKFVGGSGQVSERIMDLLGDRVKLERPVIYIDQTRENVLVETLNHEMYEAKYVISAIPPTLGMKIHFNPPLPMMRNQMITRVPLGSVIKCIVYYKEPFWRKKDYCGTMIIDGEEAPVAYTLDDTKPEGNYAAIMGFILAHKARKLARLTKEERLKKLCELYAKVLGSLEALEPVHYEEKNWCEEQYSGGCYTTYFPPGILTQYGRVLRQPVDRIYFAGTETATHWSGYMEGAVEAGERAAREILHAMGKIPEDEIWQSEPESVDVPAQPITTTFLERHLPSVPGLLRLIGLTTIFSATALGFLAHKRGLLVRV

[10] = target: T5, Amine oxidase [flavin-containing] B; assay: Inhibition of recombinant human MAO-B expressed in baculovirus infected BTI insect cells at 10 uM preincubated for 30 mins followed by addition of p-tyramine as substrate measured over 45 mins by Amplex Red MAO assay relative to control; conditions: 0.75 h
Adenosine receptor A3 = target: T6, Adenosine receptor A3 (Homo sapiens, UniProt P0DMS8); assay: Displacement of [3H]PSB-11 from human A3 receptor expressed in CHO cell membrane by liquid scintillation counting method relative to control; type: cell membranes
T6 sequence (P0DMS8 whole entry): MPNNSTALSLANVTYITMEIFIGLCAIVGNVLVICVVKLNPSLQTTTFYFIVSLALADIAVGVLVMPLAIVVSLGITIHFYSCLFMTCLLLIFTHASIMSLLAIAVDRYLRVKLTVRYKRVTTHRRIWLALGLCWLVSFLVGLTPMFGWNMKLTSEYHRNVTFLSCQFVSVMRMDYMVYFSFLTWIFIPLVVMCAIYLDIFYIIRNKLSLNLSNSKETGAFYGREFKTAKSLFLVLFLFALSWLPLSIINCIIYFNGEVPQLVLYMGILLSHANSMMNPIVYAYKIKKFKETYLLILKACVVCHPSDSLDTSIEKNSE

Adenosine receptor A2b [11] = target: T7, Adenosine receptor A2b (Homo sapiens, UniProt P29275); assay: Displacement of [3H]PSB-603 from human A2B receptor expressed in CHO cell membrane; type: cell membranes
T7 sequence (P29275 whole entry): T3 sequence (whole entry)

Adenosine receptor A1 [12] = target: T8, Adenosine receptor A1 (Homo sapiens, UniProt P30542); assay: Displacement of [3H]CCPA from human A1 receptor expressed in CHO cell membrane by liquid scintillation counting method; type: cell membranes
T8 sequence (P30542 whole entry): T4 sequence (whole entry)

Adenosine receptor A2a [13] = target: Adenosine receptor A2a (Rattus norvegicus, UniProt P30543); assay: Displacement of [3H]MSX from A2A receptor in rat brain striatum membranes measured after 30 mins by liquid scintillation counting method; type: cell membranes
Chain of Adenosine receptor A2a (Rattus norvegicus, UniProt P30543) (P30543 whole entry): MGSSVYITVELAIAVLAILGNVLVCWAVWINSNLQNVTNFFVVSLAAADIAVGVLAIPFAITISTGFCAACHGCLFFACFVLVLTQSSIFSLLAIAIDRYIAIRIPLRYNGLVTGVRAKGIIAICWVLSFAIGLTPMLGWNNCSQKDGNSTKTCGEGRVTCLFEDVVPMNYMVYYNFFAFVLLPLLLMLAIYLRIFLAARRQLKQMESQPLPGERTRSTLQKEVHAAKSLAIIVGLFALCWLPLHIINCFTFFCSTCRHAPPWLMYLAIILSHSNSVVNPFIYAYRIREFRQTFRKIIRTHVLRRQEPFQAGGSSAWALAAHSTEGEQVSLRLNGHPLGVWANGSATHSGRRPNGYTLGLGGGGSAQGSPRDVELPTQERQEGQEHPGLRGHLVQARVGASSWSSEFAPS

[14] = Thermodynamic solubility of the compound at pH 1; type: physicochemical; conditions: buffer, read-out: Therm_solubility
[15] = target: T4, Adenosine receptor A1 (Homo sapiens); assay: Agonist activity at recombinant human A1 receptor expressed in CHO cells assessed as inhibition of forskolin-induced cAMP accumulation at 10 uM preincubated for 20 mins prior to forskolin-stimulation measure after 5 mins by liquid scintillation counting method; type: functional, cell-based
Homo sapiens = species on record: Homo sapiens; assay: Selectivity ratio, ratio of Ki for human A2A receptor to Ki for human A1 receptor
[16] = target: T9, Adenosine receptor A3 (Homo sapiens) (UniProt P0DMS8); assay: Displacement of [3H]PSB-11 from human A3 receptor expressed in CHO cell membrane at 10 uM by liquid scintillation counting method relative to control relative to control; type: cell membranes
T9 sequence (whole entry): T6 sequence (P0DMS8 whole entry)

[17] = target: T10, Amine oxidase [flavin-containing] A (Homo sapiens, UniProt P21397); assay: Inhibition of recombinant human MAO-A expressed in baculovirus infected BTI insect cells preincubated for 30 mins followed by addition of p-tyramine as substrate measured over 45 mins by Amplex Red MAO assay
T10 sequence (P21397 whole entry): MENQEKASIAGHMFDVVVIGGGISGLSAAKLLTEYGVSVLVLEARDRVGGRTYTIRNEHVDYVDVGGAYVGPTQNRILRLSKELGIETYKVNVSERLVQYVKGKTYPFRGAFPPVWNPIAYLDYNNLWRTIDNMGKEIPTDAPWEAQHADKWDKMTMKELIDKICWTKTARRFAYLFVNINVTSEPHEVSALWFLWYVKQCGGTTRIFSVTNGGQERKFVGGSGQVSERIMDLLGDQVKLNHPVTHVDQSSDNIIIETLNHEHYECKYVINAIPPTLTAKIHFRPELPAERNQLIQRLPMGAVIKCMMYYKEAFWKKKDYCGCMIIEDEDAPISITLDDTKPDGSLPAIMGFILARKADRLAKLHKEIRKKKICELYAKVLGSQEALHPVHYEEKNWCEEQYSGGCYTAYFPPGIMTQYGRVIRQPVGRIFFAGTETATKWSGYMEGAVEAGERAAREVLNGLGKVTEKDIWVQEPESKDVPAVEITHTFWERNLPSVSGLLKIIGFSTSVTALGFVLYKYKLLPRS

[18] = target: T10, Amine oxidase [flavin-containing] A; assay: Inhibition of recombinant human MAO-A expressed in baculovirus infected BTI insect cells at 10 uM preincubated for 30 mins followed by addition of p-tyramine as substrate measured over 45 mins by Amplex Red MAO assay relative to control; conditions: 0.75 h
[19] = target: T9, Adenosine receptor A3 (Homo sapiens); assay: Displacement of [3H]PSB-11 from human A3 receptor expressed in CHO cell membrane at 1 uM by liquid scintillation counting method relative to control relative to control; type: cell membranes
[20] = target: T11, Adenosine receptor A1 (Rattus norvegicus) (UniProt P25099); assay: Displacement of [3H]CCPA from A1 receptor in rat brain cortex membranes at 1.5 uM by liquid scintillation counting method; type: cell membranes
T11 sequence (whole entry): T2 sequence (P25099 whole entry)

Adenosine receptor A2b [21] = target: T7, Adenosine receptor A2b; assay: Displacement of [3H]PSB-603 from human A2B receptor expressed in CHO cell membrane measured after 75 mins by liquid scintillation counting method; type: cell membranes
[22] = target: T3, Adenosine receptor A2b (Homo sapiens); assay: Displacement of [3H]PSB-603 from human A2B receptor expressed in CHO cell membrane measured after 75 mins by liquid scintillation counting method relative to control; type: cell membranes
Adenosine receptor A2a [23] = target: T1, Adenosine receptor A2a; assay: Displacement of [3H]MSX from human A2A receptor by liquid scintillation counting method
Adenosine receptor A1 [24] = target: T2, Adenosine receptor A1; assay: Displacement of [3H]MSX from rat A1 receptor measured after 75 mins by liquid scintillation counting method
Adenosine receptor A1 [25] = target: T2, Adenosine receptor A1; assay: Displacement of [3H]CCPA from rat A1 receptor by liquid scintillation counting method

Activity (Adenosine receptor A2a [1]) | Ki (Adenosine receptor A1 [2]) | Activity [3] | Activity (Adenosine receptor A2a [4]) | Ki (Adenosine receptor A2a [5]) | solubility thermodynamic [7] | Activity [8] | IC50 [9] | inhibition at 10 µM [10] | Ki (Adenosine receptor A3) | Ki (Adenosine receptor A2b [11]) | Ki (Adenosine receptor A1 [12]) | Ki (Adenosine receptor A2a [13]) | Activity [15] | Activity [16] | SMILES | further results
inactive | 157 nM | 25% | inactive | 217 nM | < 0.5 µg/mL | inactive | 10000 nM | 54% | 7490 nM | > 1000 nM | 236 nM | 355 nM | inactive |  | Cn1c(=O)c2c(nc3n2CCN(Cc2csc(-c4ccc(C(F)(F)F)cc4)n2)C3)n(C)c1=O | solubility thermodynamic [6]: < 0.5 µg/mL; solubility thermodynamic [14]: 200 µg/mL (≈ 420 µM)
inactive | 352 nM | 7% | inactive | 230 nM | 4 µg/mL (≈ 10.3 µM) | inactive | > 10000 nM | 44% | > 10000 nM | > 1000 nM | 65.5 nM | 316 nM | inactive | 34% | Cn1c(=O)c2c(nc3n2CCN(CCCc2ccc(Cl)cc2)C3)n(C)c1=O | Ratio Ki (Homo sapiens): 4; IC50 [17]: > 10000 nM; inhibition at 10 µM [18]: 12%
 | > 1500 nM | 11% |  |  |  |  | 132 nM |  | > 1000 nM | > 1000 nM |  | 3900 nM |  |  | Cn1c(=O)c2c(nc3n2CCN(c2ccc(Br)cc2)C3)n(C)c1=O | Activity [19]: 2%; Activity [20]: 15%
 |  |  |  |  |  |  | > 10000 nM | 36% | > 10000 nM |  | 265 nM |  |  | 21% | Cn1c(=O)c2c(nc3n2CCN(Cc2ccccc2)C3)n(C)c1=O | Ki (Adenosine receptor A2b [21]): > 1000 nM; Activity [22]: 15%; Ki (Adenosine receptor A2a [23]): 1060 nM; Ki (Adenosine receptor A1 [24]): 598 nM; Ki (Adenosine receptor A1 [25]): 79.3 nM
